Key:
Type in all cases: cell-based
[1] = test system: SK-MEL-5; test: NCI DTP in-vitro dose response, Melanoma
[2] = test system: LOX IMVI; test: NCI DTP in-vitro dose response, Melanoma
[3] = test system: BT-549; test: NCI DTP in-vitro dose response, Breast Cancer
[4] = test system: UACC-257; test: NCI DTP in-vitro dose response, Melanoma
[5] = test system: HCT-15; test: NCI DTP in-vitro dose response, Colon Cancer
[6] = test system: MDA-MB-435; test: NCI DTP in-vitro dose response, Breast Cancer
[7] = test system: 786-0; test: NCI DTP in-vitro dose response, Renal Cancer
[8] = test system: SK-OV-3; test: NCI DTP in-vitro dose response, Ovarian Cancer
[9] = test system: HS 578T; test: NCI DTP in-vitro dose response, Breast Cancer
[10] = test system: SR; test: NCI DTP in-vitro dose response, Leukemia
[11] = test system: MDA-MB-231/ATCC; test: NCI DTP in-vitro dose response, Breast Cancer
[12] = test system: MCF7; test: NCI DTP in-vitro dose response, Breast Cancer
[13] = test system: OVCAR-5; test: NCI DTP in-vitro dose response, Ovarian Cancer
[14] = test system: MOLT-4; test: in vitro test at 1.0×10^−5 M, Blood cancer cell; details: 1.0×10^−5 molal concentration (M)
[15] = test system: UACC-257; test: in vitro test at 1.0×10^−5 M, Skin cancer cell; details: 1.0×10^−5 molal concentration (M)
[16] = test system: HOP-92; test: in vitro test at 1.0×10^−5 M, Non-small cell lung cancer cell; details: 1.0×10^−5 molal concentration (M)
[17] = test system: T-47D; test: in vitro test at 1.0×10^−5 M, Breast cancer cell; details: 1.0×10^−5 molal concentration (M)

SMILES: O=C1c2ccccc2C(=O)c2c1ccc1nsnc21 [No. 22, Anthra[2,1-c][1,2,5]thiadiazole-6,11-dione]
- GI50 ([1]; Homo sapiens, SK-MEL-5): 1.13 µM
- CC50 ([1]; Homo sapiens, SK-MEL-5, read-out: LC50): 4.83 µM
- Percent Growth ([1]; Log10 Concentration −4.0): −100%
- Percent Growth ([1]; Log10 Concentration −5.0): −100%
- Percent Growth ([1]; Log10 Concentration −6.0): 58%
- Percent Growth ([1]; Log10 Concentration −7.0): 85%
- Percent Growth ([1]; Log10 Concentration −8.0): 98%
- TGI ([1]; SK-MEL-5): 2.34E−6
- GI50 ([2]; Homo sapiens, LOX IMVI): 1.03 µM
- CC50 ([2]; Homo sapiens, LOX IMVI, read-out: LC50): > 100 µM
- TGI ([2]; LOX IMVI): 3.56E−6
- Percent Growth ([2]; Log10 Concentration −4.0): −33%
- Percent Growth ([2]; Log10 Concentration −5.0): −42%
- Percent Growth ([2]; Log10 Concentration −6.0): 51%
- Percent Growth ([2]; Log10 Concentration −7.0): 98%
- Percent Growth ([2]; Log10 Concentration −8.0): 101%
- TGI ([3]; BT-549): 3.55E−5
- GI50 ([3]; Homo sapiens, BT-549): 13.1 µM
- CC50 ([3]; Homo sapiens, BT-549, read-out: LC50): 96.2 µM
- Percent Growth ([3]; Log10 Concentration −4.0): −52%
- Percent Growth ([3]; Log10 Concentration −5.0): 64%
- Percent Growth ([3]; Log10 Concentration −6.0): 126%
- Percent Growth ([3]; Log10 Concentration −7.0): 102%
- Percent Growth ([3]; Log10 Concentration −8.0): 92%
- GI50 ([4]; Homo sapiens, UACC-257): 1.48 µM
- CC50 ([4]; Homo sapiens, UACC-257, read-out: LC50): 6.21 µM
- Percent Growth ([4]; Log10 Concentration −4.0): −91%
- Percent Growth ([4]; Log10 Concentration −5.0): −83%
- Percent Growth ([4]; Log10 Concentration −6.0): 77%
- Percent Growth ([4]; Log10 Concentration −7.0): 101%
- Percent Growth ([4]; Log10 Concentration −8.0): 96%
- TGI ([4]; UACC-257): 3.03E−6
- TGI ([5]; HCT-15): 7.80E−6
- GI50 ([5]; Homo sapiens, HCT-15): 2.49 µM
- CC50 ([5]; Homo sapiens, HCT-15, read-out: LC50): 90.6 µM
- Percent Growth ([5]; Log10 Concentration −4.0): −52%
- Percent Growth ([5]; Log10 Concentration −5.0): −11%
- Percent Growth ([5]; Log10 Concentration −6.0): 90%
- Percent Growth ([5]; Log10 Concentration −7.0): 104%
- Percent Growth ([5]; Log10 Concentration −8.0): 110%
- GI50 ([6]; Homo sapiens, MDA-MB-435): 1.91 µM
- CC50 ([6]; Homo sapiens, MDA-MB-435, read-out: LC50): 87.8 µM
- Percent Growth ([6]; Log10 Concentration −4.0): −51%
- Percent Growth ([6]; Log10 Concentration −5.0): −32%
- Percent Growth ([6]; Log10 Concentration −6.0): 82%
- Percent Growth ([6]; Log10 Concentration −7.0): 102%
- Percent Growth ([6]; Log10 Concentration −8.0): 100%
- TGI ([6]; MDA-MB-435): 5.23E−6
- TGI ([7]; 786-0): 1.16E−5
- GI50 ([7]; Homo sapiens, 786-0): 3.93 µM
- CC50 ([7]; Homo sapiens, 786-0, read-out: LC50): 52.7 µM
- Percent Growth ([7]; Log10 Concentration −4.0): −71%
- Percent Growth ([7]; Log10 Concentration −5.0): 5%
- Percent Growth ([7]; Log10 Concentration −6.0): 116%
- Percent Growth ([7]; Log10 Concentration −7.0): 106%
- Percent Growth ([7]; Log10 Concentration −8.0): 105%
- GI50 ([8]; Homo sapiens, SK-OV-3): 2.26 µM
- CC50 ([8]; Homo sapiens, SK-OV-3, read-out: LC50): 23.6 µM
- Percent Growth ([8]; Log10 Concentration −4.0): −97%
- Percent Growth ([8]; Log10 Concentration −5.0): −22%
- Percent Growth ([8]; Log10 Concentration −6.0): 89%
- Percent Growth ([8]; Log10 Concentration −7.0): 90%
- Percent Growth ([8]; Log10 Concentration −8.0): 102%
- TGI ([8]; SK-OV-3): 6.35E−6
- TGI ([9]; HS 578T): >1.00E−4
- GI50 ([9]; Homo sapiens, Hs-578T): 5.03 µM
- CC50 ([9]; Homo sapiens, Hs-578T, read-out: LC50): > 100 µM
- Percent Growth ([9]; Log10 Concentration −4.0): 21%
- Percent Growth ([9]; Log10 Concentration −5.0): 29%
- Percent Growth ([9]; Log10 Concentration −6.0): 100%
- Percent Growth ([9]; Log10 Concentration −7.0): 114%
- Percent Growth ([9]; Log10 Concentration −8.0): 109%
- GI50 ([10]; Homo sapiens, SR): 6.89 µM
- CC50 ([10]; Homo sapiens, SR, read-out: LC50): > 100 µM
- Percent Growth ([10]; Log10 Concentration −4.0): −22%
- Percent Growth ([10]; Log10 Concentration −5.0): 41%
- Percent Growth ([10]; Log10 Concentration −6.0): 99%
- Percent Growth ([10]; Log10 Concentration −7.0): 112%
- Percent Growth ([10]; Log10 Concentration −8.0): 108%
- TGI ([10]; SR): >1.00E−4
- GI50 ([11]; Homo sapiens, MDA-MB-231): 2.56 µM
- CC50 ([11]; Homo sapiens, MDA-MB-231, read-out: LC50): > 100 µM
- Percent Growth ([11]; Log10 Concentration −4.0): 6%
- Percent Growth ([11]; Log10 Concentration −5.0): 4%
- Percent Growth ([11]; Log10 Concentration −6.0): 81%
- Percent Growth ([11]; Log10 Concentration −7.0): 87%
- Percent Growth ([11]; Log10 Concentration −8.0): 104%
- TGI ([11]; MDA-MB-231/ATCC): >1.00E−4
- GI50 ([12]; Homo sapiens, MCF7): 1.24 µM
- CC50 ([12]; Homo sapiens, MCF7, read-out: LC50): 7.72 µM
- Percent Growth ([12]; Log10 Concentration −4.0): −63%
- Percent Growth ([12]; Log10 Concentration −5.0): −64%
- Percent Growth ([12]; Log10 Concentration −6.0): 62%
- Percent Growth ([12]; Log10 Concentration −7.0): 77%
- Percent Growth ([12]; Log10 Concentration −8.0): 88%
- TGI ([12]; MCF7): 3.10E−6
- GI50 ([13]; Homo sapiens, OVCAR-5): 2.18 µM
- CC50 ([13]; Homo sapiens, OVCAR-5, read-out: LC50): 9.06 µM
- Percent Growth ([13]; Log10 Concentration −4.0): −58%
- Percent Growth ([13]; Log10 Concentration −5.0): −57%
- Percent Growth ([13]; Log10 Concentration −6.0): 105%
- Percent Growth ([13]; Log10 Concentration −7.0): 94%
- Percent Growth ([13]; Log10 Concentration −8.0): 99%
- TGI ([13]; OVCAR-5): 4.44E−6

SMILES: CCc1nc2ccc3c(c2[nH]1)C(=O)c1ccccc1C3=O [No. 4, 2-Ethyl-1(3)H-anthra[1,2-d]imidazole-6,11-dione]
- inhibition effect on cancer cell line (Table 2 value) [14]: 64.17
- inhibition effect on cancer cell line (Table 2 value) [15]: 39.69
- inhibition effect on cancer cell line (Table 2 value) [16]: 41.43
- inhibition effect on cancer cell line (Table 2 value) [17]: 63.05

Source: US8445492B2, “Method for inhibiting growth of cancer cells and cell telomere and diseases of cell proliferation by using heteroannelated anthraquinone derivative compounds” (National Defense Medical Center, priority 2008, dated 2013)
